Measured values: PMC5458252, “Niclosamide is a potential therapeutic for familial adenomatosis polyposis by disrupting Axin-GSK3 interaction” (Oncotarget, 2017)

Target: T1, GSK3β (Homo sapiens, UniProt P49841)
T1 construct: gene GSK3B; His-tagged recombinant GSK3β from sf9 insect cells
Assay: SPR (ProteOn XPR36, immobilized recombinant GSK3β); supported by competition with FITC-Axin peptide (AFF assay)
Assay type: binding
From the text: SPR (ProteOn XPR36, immobilized recombinant GSK3β); supported by competition with FITC-Axin peptide (AFF assay) on GSK3β | wild type Axin peptide or niclosamide directly binds to GSK3, the equilibrium dissociation constant yielding a KD

T1 sequence (P49841 whole entry): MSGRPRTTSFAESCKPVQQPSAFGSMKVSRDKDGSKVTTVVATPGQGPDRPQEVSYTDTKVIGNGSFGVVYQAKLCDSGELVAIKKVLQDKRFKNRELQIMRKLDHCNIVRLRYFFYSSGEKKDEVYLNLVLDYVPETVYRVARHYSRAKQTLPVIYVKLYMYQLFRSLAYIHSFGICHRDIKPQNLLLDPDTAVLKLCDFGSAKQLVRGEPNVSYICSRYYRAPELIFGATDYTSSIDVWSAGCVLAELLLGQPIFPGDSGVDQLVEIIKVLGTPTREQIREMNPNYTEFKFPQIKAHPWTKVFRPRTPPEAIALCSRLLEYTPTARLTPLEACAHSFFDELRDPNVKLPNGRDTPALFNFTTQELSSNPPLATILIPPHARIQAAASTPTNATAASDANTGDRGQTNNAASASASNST

Kd: 34.5 µM
Structure (SMILES): O=C(Nc1ccc([N+](=O)[O-])cc1Cl)c1cc(Cl)ccc1O [Niclosamide]
